Source: ChEMBL document CHEMBL1133098, “Subtype-selective N-methyl-D-aspartate receptor antagonists: benzimidazalone and hydantoin as phenol replacements” (J Med Chem, 2000)
pIC50: −log10 of the molar value.

These molecules were tested against Glutamate NMDA receptor; Grin1/Grin2b (Rattus norvegicus, UniProt P35439+Q00960) (assay: In vitro inhibition of NMDA responses at NR1A/2B receptor expressed in Xenopus oocytes).
Assay type: cell-based, Oocyte

Sequence of Glutamate NMDA receptor; Grin1/Grin2b (Q00960 whole entry, looked up, other chains not shown): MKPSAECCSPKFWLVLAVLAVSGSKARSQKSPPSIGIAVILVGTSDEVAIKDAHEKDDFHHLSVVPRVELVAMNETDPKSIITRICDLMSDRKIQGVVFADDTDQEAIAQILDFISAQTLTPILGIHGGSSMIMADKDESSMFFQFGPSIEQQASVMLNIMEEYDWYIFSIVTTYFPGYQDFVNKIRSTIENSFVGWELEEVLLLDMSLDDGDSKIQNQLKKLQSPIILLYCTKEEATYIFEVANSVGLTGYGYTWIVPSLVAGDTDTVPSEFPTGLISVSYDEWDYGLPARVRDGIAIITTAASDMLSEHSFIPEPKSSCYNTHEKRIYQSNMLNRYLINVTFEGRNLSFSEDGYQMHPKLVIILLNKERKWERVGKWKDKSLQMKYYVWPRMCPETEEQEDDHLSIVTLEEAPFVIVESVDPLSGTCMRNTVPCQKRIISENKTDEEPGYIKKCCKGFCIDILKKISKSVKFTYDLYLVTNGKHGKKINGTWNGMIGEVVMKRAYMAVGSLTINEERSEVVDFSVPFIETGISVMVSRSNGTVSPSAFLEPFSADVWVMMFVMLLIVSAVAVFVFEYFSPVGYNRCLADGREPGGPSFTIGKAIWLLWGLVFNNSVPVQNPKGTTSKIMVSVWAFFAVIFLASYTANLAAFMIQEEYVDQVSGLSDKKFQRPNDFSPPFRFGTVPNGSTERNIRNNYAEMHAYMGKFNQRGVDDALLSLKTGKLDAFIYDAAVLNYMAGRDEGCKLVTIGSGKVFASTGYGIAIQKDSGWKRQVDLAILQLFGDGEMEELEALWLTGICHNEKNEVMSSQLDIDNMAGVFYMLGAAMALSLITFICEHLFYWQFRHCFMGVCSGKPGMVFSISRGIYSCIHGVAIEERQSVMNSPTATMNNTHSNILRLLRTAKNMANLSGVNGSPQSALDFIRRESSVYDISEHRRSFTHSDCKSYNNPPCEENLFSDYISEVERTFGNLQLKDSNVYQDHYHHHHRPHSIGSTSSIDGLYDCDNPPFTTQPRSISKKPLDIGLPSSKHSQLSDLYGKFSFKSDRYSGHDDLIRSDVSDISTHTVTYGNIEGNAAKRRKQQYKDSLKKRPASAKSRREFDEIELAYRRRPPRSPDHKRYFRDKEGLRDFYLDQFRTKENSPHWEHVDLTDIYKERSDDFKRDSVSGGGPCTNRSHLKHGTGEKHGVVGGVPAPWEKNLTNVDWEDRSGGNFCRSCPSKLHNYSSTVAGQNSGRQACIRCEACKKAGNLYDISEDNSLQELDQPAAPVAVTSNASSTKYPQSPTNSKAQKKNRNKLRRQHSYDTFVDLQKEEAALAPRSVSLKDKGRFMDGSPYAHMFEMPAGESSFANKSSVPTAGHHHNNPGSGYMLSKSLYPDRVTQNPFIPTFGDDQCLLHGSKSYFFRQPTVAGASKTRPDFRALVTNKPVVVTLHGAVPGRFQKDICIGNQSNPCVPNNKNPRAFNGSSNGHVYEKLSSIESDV

| SMILES | pIC50 |
| --- | --- |
| O=c1[nH]c2ccccc2n1CCCN1CCC(Cc2ccc(F)cc2)CC1 | 6.96 |
| O=C1CNC(=O)N1CCCCCN1CCC(Cc2ccccc2)CC1 | 4.31 |
| O=C1CNC(=O)N1CCCN1CCC(Cc2ccccc2)CC1 | 4.57 |
| O=C1CNC(=O)N1CCCCN1CCC(Cc2ccccc2)CC1 | 5.00 |

Next, values leading:

| pIC50 | SMILES |
| --- | --- |
| 7.02 | O=c1[nH]c2ccccc2n1CCCN1CCC(Cc2ccccc2)CC1 |
| 5.47 | Oc1nc2ccccc2n1CCCCN1CCC(Cc2ccccc2)CC1 |
| 4.96 | O=c1[nH]c2ccccc2n1CCCCCN1CCC(Cc2ccccc2)CC1 |

Each molecule was assayed against Glutamate receptor ionotropic, NMDA 2C (Rattus norvegicus, UniProt P35439+Q00961) (assay: In vitro inhibition of NMDA responses at NR1A/2C receptor expressed in Xenopus oocytes).
Sequence of Glutamate receptor ionotropic, NMDA 2C (Q00961 whole entry, one chain of several): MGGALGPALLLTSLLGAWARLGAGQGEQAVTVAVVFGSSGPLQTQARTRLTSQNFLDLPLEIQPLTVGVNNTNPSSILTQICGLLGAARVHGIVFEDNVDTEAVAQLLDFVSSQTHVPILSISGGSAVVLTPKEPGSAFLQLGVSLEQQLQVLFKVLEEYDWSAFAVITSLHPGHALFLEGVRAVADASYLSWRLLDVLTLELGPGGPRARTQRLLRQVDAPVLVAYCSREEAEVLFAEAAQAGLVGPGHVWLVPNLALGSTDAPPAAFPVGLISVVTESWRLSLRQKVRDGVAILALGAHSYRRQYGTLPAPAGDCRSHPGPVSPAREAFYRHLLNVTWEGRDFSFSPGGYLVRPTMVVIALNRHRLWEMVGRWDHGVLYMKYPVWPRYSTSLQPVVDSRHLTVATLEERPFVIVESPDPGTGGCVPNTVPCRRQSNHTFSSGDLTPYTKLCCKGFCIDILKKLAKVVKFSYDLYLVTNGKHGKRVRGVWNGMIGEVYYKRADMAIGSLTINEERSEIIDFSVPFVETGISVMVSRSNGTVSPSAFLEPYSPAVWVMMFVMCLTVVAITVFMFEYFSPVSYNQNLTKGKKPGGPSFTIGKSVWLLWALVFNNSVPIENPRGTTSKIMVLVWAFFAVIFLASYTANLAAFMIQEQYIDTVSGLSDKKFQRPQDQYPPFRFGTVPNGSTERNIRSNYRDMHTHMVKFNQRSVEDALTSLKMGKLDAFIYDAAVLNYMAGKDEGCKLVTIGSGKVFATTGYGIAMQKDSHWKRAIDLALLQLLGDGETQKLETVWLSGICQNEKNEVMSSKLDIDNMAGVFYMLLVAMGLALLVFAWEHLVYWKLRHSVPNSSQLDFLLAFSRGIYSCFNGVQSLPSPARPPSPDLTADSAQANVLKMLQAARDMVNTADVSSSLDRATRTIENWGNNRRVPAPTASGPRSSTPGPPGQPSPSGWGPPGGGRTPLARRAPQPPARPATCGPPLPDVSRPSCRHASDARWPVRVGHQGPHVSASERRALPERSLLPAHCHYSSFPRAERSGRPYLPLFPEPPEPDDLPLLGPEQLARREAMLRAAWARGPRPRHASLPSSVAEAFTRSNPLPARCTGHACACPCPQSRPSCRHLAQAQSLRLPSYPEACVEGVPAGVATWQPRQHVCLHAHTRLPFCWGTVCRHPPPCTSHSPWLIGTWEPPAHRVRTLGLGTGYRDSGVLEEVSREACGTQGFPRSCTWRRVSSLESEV
Assay type: cell-based, Oocyte

| SMILES | pIC50 |
| --- | --- |
| O=c1[nH]c2ccccc2n1CCCN1CCC(Cc2ccc(F)cc2)CC1 | < 4.00 |
| O=C1CNC(=O)N1CCCCCN1CCC(Cc2ccccc2)CC1 | < 4.00 |
| O=C1CNC(=O)N1CCCN1CCC(Cc2ccccc2)CC1 | < 4.00 |
| O=C1CNC(=O)N1CCCCN1CCC(Cc2ccccc2)CC1 | < 4.00 |

The remaining lines, values ahead:

| pIC50 | SMILES |
| --- | --- |
| < 4.00 | Oc1ccc(OCCN2CCC(Cc3ccccc3)CC2)cc1 |
| < 4.00 | O=c1[nH]c2ccccc2n1CCCN1CCC(Cc2ccccc2)CC1 |
| < 4.00 | Oc1nc2ccccc2n1CCCCN1CCC(Cc2ccccc2)CC1 |
| < 4.00 | O=c1[nH]c2ccccc2n1CCCCCN1CCC(Cc2ccccc2)CC1 |

Each molecule was assayed against Glutamate NMDA receptor; Grin1/Grin2a (Rattus norvegicus, UniProt P35439+Q00959) (assay: In vitro inhibition of NMDA responses at NR1A/2A receptor expressed in Xenopus oocytes).
Sequence of Glutamate NMDA receptor; Grin1/Grin2a (Q00959 whole entry, looked up, other chains not shown): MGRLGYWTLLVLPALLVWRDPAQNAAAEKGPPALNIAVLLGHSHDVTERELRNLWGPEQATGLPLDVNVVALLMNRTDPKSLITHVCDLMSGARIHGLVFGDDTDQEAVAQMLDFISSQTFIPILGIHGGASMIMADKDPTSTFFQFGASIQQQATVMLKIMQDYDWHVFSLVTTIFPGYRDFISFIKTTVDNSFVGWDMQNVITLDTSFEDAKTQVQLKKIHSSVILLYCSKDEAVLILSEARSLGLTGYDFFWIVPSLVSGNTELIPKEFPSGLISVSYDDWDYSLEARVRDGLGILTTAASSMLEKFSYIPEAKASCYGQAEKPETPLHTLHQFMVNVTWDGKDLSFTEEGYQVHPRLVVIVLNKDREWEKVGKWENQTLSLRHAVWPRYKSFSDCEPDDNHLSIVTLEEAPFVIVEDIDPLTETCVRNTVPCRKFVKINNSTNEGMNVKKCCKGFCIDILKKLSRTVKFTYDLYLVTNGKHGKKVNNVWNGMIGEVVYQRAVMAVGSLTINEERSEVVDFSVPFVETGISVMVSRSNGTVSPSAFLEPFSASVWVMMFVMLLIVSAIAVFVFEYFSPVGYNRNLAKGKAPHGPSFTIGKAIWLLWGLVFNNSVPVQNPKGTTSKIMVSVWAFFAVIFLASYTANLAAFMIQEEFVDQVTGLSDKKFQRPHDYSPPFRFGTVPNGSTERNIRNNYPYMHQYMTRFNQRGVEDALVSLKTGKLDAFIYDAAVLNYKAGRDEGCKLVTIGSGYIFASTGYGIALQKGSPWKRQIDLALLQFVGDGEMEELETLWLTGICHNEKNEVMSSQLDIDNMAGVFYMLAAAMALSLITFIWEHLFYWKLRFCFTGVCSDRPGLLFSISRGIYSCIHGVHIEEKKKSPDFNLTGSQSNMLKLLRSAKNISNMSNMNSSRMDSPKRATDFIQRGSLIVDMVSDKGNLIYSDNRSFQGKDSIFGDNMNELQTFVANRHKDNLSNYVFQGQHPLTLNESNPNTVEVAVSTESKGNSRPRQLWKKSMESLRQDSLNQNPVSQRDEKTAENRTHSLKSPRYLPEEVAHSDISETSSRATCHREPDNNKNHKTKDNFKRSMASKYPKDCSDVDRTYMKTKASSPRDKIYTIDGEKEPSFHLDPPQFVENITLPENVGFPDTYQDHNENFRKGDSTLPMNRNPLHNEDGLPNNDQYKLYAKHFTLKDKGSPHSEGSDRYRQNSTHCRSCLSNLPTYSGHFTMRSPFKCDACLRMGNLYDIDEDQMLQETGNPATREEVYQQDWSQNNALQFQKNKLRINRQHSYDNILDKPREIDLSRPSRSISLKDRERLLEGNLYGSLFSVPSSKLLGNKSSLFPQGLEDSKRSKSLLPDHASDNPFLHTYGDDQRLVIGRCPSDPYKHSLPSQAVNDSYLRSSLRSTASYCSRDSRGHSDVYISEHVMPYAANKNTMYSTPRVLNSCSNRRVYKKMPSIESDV
Assay type: cell-based, Oocyte

| SMILES | pIC50 |
| --- | --- |
| O=c1[nH]c2ccccc2n1CCCN1CCC(Cc2ccc(F)cc2)CC1 | < 4.00 |
| O=C1CNC(=O)N1CCCCCN1CCC(Cc2ccccc2)CC1 | 4.06 |
| O=C1CNC(=O)N1CCCN1CCC(Cc2ccccc2)CC1 | < 4.00 |
| O=C1CNC(=O)N1CCCCN1CCC(Cc2ccccc2)CC1 | < 4.00 |

Continued, values first:

| pIC50 | SMILES |
| --- | --- |
| < 4.00 | Oc1ccc(OCCN2CCC(Cc3ccccc3)CC2)cc1 |
| < 4.00 | O=c1[nH]c2ccccc2n1CCCN1CCC(Cc2ccccc2)CC1 |
| < 4.00 | Oc1nc2ccccc2n1CCCCN1CCC(Cc2ccccc2)CC1 |
| < 4.00 | O=c1[nH]c2ccccc2n1CCCCCN1CCC(Cc2ccccc2)CC1 |
